# Tests used:
# N. gonorrhoeae [1] = assay type: cell-based, Neisseria gonorrhoeae; conditions: out of all 1102 gonococcal isolates; ancestral reconstruction only for cefixime
# Excerpt: (§1) For all antibiotics, RASE associates individual isolates with a resistance category, susceptible or non-susceptible. First, MIC values are mined using regular expressions from the available textual antibiograms, i.e., strings describing an interval of possible MIC values. Second, the acquired intervals are compared to the antibiotic-specific breakpoints (FIG. 6). If a given breakpoint is above or below the interval, susceptibility or non-susceptibility is reported, respectively. However, no category can be assigned at this step if the breakpoint lies within the extracted interval, an antibiogram is entirely missing, or an antibiogram is present, but parsing failed. Third, missing categories are inferred using ancestral state reconstruction on the associated phylogenetic tree while maximizing parsimony (i.e., minimizing the number of nodes switching its resistance category; FIG. 7).
# (§2) The pneumococcal RASE database was constructed with the standard EUCAST breakpoints^16 ([g/ml]): benzylpenicillin (PEN): 0.06, ceftriaxone (CRO): 0.25, trimethoprim-sulfamethoxazole (SXT): 1.00, erythromycin (ERY): 0.25, and tetracycline (TET): 1.00. The gonococcal RASE database was constructed with the CDC GISP breakpoints ([g/ml]): azithromycin (AZM): 2.0, cefixime (CFM): 0.25, ciprofloxacin (CIP): 1.0, and ceftriaxone (CRO): 0.125. While the Inventors have used the above values in the present work, others may be readily defined and the database rapidly updated.
# (§3) The Inventors assigned each pneumococcal and gonococcal isolate to an antibiotic-specific resistance category using the EUCAST breakpoints and CDC GISP breakpoints, respectively. Since MIC data were not always available, the Inventors estimated the likely resistance phenotype of unannotated isolates using ancestral state reconstruction.
# S. pneumoniae [2] = experiment: Resistance categories of pneumococcal RASE database isolates (MIC vs EUCAST breakpoints, ancestral state reconstruction); assay type: cell-based, Streptococcus pneumoniae; conditions: for resistance phenotype of best match database isolate: best match in the Massachusetts RASE database for SP03 and SP06; for number of isolates susceptible: out of all 616 pneumococcal isolates, includes categories inferred by ancestral state reconstruction
# Excerpt: as §1, with “(see below).” for “(FIG. 6).”, “category).” for “category; FIG. 7).”
# The RASE database is constructed with the standard EUCAST breakpoints ([g/ml]): Benzylpenicillin (PEN): 0.06, Ceftriaxone (CRO): 0.25, […]: 1.00, Erythromycin (ERY): 0.25, and Tetracycline (TET): 1.00. The breakpoints are set conservatively, i.e., non-susceptibility is preferred over susceptibility for intermediate values. While the Inventors have used the above values in the present work, others may be readily defined and the database rapidly updated.
# as §1, §2, §3
# N. gonorrhoeae [3] = experiment: MIC of gonococcal isolates against CDC GISP breakpoint; assay type: cell-based, Neisseria gonorrhoeae; parameters: unit not given beside the values
# Excerpt: as §2, with “updated. This is especially useful in the case where breakpoints may vary depending on the site of infection (as is the case with pneumococcal meningitis and otitis media, where lower MICs are considered to be resistant).” for “updated.”
# S. pneumoniae [4] = experiment: Resistance of streptococcus in metagenomic sputum samples by agar diffusion, EUCAST methodology and breakpoints; assay type: cell-based, Streptococcus pneumoniae; conditions: metagenomic sputum sample SP10 (Swedish 15A clone, ST63)
# Method: Resistance of streptococcus in the metagenomic samples (SP07-SP12) was determined by agar diffusion using the EUCAST methodology and breakpoints. First, the inoculated agar plates were incubated at 37° C. overnight and then examined for growth with the potential for re-incubation up to 48 hours. Then, the samples were screened to oxacillin: if the zone diameter r was >20 mm, the isolate was considered sensitive to benzylpenicillin, otherwise a full MIC measurement to benzylpenicillin was done.
# S. pneumoniae [5] = experiment: Antibiograms of additional pneumococcal isolates not in the RASE database, EUCAST breakpoints; assay type: cell-based, Streptococcus pneumoniae; conditions: 23F isolates SP03 and SP06, related to Tennessee 23F-4 clone
# Excerpt: The Inventors examined four additional pneumococcal isolates (FIG. 14b) for which the serotype and limited antibiogram and lineage data were known. The Inventors compared three characteristics of the sample to assess the Inventors' performance: the serotype, the MLST sequence type (ST) and the antibiograms (benzylpenicillin, ceftriaxone, trimethoprim-sulfamethoxazole, erythromycin, and tetracycline resistance according to EUCAST breakpoints).
Molecule,number of isolates associated with resistance (N. gonorrhoeae [1]),number of isolates susceptible (S. pneumoniae [2]),also measured
CC[C@H]1OC(=O)[C@H](C)[C@@H](O[C@H]2C[C@@](C)(OC)[C@@H](O)[C@H](C)O2)[C@H](C)[C@@H](O[C@@H]2O[C@H](C)C[C@H](N(C)C)[C@H]2O)[C@](C)(O)C[C@@H](C)CN(C)[C@H](C)[C@@H](O)[C@]1(C)O [azithromycin],232,–,–
CC1(C)S[C@@H]2[C@H](NC(=O)Cc3ccccc3)C(=O)N2[C@H]1C(=O)O [benzylpenicillin],–,341,resistance phenotype of best match database isolate (S. pneumoniae [2]): resistant
C=CC1=C(C(=O)O)N2C(=O)[C@@H](NC(=O)/C(=N\OCC(=O)O)c3csc(N)n3)[C@H]2SC1 [cefixime],266,–,–
CO/N=C(\C(=O)N[C@@H]1C(=O)N2C(C(=O)O)=C(CSc3nc(=O)c(=O)[nH]n3C)CS[C@H]12)c1csc(N)n1 [ceftriaxone],69,485,"MIC (N. gonorrhoeae [3]; best match of GC05 in the RASE database): 0.062; MIC (N. gonorrhoeae [3]; multi-drug resistant isolate GC05, equal to CDC GISP breakpoint): 0.125"
O=C(O)c1cn(C2CC2)c2cc(N3CCNCC3)c(F)cc2c1=O [ciprofloxacin],594,–,–
CC[C@H]1OC(=O)[C@H](C)[C@@H](O[C@H]2C[C@@](C)(OC)[C@@H](O)[C@H](C)O2)[C@H](C)[C@@H](O[C@@H]2O[C@H](C)C[C@H](N(C)C)[C@H]2O)[C@](C)(O)C[C@@H](C)C(=O)[C@H](C)[C@@H](O)[C@]1(C)O [erythromycin],–,484,resistance phenotype of sample (S. pneumoniae [4]): resistant; resistance phenotype of best match database isolate (S. pneumoniae [2]): susceptible; resistance phenotype of samples (S. pneumoniae [5]): resistant
Cc1onc(-c2ccccc2)c1C(=O)N[C@@H]1C(=O)N2[C@@H]1SC(C)(C)[C@@H]2C(=O)O [oxacillin],–,–,resistance phenotype of sample (S. pneumoniae [4]): resistant
CN(C)[C@@H]1C(O)=C(C(N)=O)C(=O)[C@@]2(O)C(O)=C3C(=O)c4c(O)cccc4[C@@](C)(O)[C@H]3C[C@@H]12 [tetracycline],–,551,–
"COc1cc(Cc2cnc(N)nc2N)cc(OC)c1OC [trimethoprim, Trimethoprim]",–,480,–
trimethoprim-sulfamethoxazole,–,480,–
